Data published in publication PMC7392018, “A general-purpose Nanohybrid fabricated by Polymeric Au(I)-peptide precursor to wake the function of Peptide Therapeutics” (Theranostics, 2020).

Columns and labels:
In vivo toxicity study = settings: 2.5 mg/kg every other day for 12 days, HCT116 xenograft mice; PMI-Au SNH intraperitoneally, intravenously or intragastrically
Experimental: To evaluate the toxicity of PMI-Au SNH including the nephrotoxicity in vivo, we carried out a comprehensive toxicity study using the subcutaneous xenograft model of HCT116 tumors from efficacy studies. PMI-Au SNH was intraperitoneally, intravenously or intragastrically injected, every other day for a duration of 12 days, at a dose of 2.5 mg/kg, with saline, ^ctrlPMI-Au SNH and DOX as controls. […] The safety of both PMI-Au SNH and ^ctrlPMI-Au SNH and toxicity of DOX were further confirmed by changes, or lack thereof, in the function of the liver and kidney (Figure 9A-G), in the weight and H&E staining of spleen (Figure 9H-I) and in the number of white blood cells and thrombocytes (Figure S11). Moreover, heart function (Figure S12), the level of red blood cells (Figure S13) and the histological H&E staining of lung (Figure S14) supported the above findings and the conclusion that PMI-Au SNH is sufficiently safe with a significant therapeutic potential. […]
intense staining. […]
To assess potential toxicities of repeatedly infusing PMI-Au SNH, we monitored body weight of all mice over the course of treatment and measured hematological indexes as well as organ function indexes after 13- day treatment. […]

chymotrypsin = assay: Proteolysis resistance to chymotrypsin by HPLC; type: in vitro ADME; settings: chymotrypsin with 10% serum in PBS, PBS containing 10 mM oxidized glutathione, 0.5 mg/ml chymotrypsin, read-out: t1/2 of proteolysis (converted)
Experimental: Figure 3 The colloidal peptide-auric SNH is stable and proteolytically resistant. (A) The physicochemical properties of the three peptide and the schematic diagram of three peptide-Auric SNH. (B-D) The dimensional change of Pep-AuNPs and Pep-Au SNH with time in PBS (pH7.4) or PBS including 20% FBS and 50 µM GSH to simulate extracellular physiological environment. (E-G) Proteolysis resistance of Pep-SH, Pep-AuNPs and Pep-Au SNH under PBS containing 10 mM oxidized glutathione, 10% serum, and 0.5 mg/ml chymotrypsin.
Linear peptides are conformationally disordered in aqueous solutions under their own steam and, consequently, tendentious to proteolysis. Conjugation of peptides with nanoparticles would improve steric hindrance against peptidase, resulting in the resistance to proteolysis, [44]. We comparatively quantified the susceptibility of Pep-AuNPs and Pep-Au SNH to chymotrypsin using HPLC (Figure 3E-G).
Fi g u re S 9. (A) The dimensional change of PMI- Au SNH with time in PBS or PBS including 20%
FBS and 50μM GSH at pH 7.4 or 4.0 to simulate extracellular physiological environment. ( B)
Proteolysis resistance of Pep-Au SNH under PBS at pH 7.4 or 4.0 containing 10 mM oxidized
glutathione, 10% serum, and 0.5 mg/ml chymotrypsin. (C) ICP- MS quantification of gold content
(from PMI- Au SNH) in stomach, colon and blood collected from health c57/b6 mice. The data […]

| SMILES | body weight change (In vivo toxicity study) | half-life (chymotrypsin) [min] |
| --- | --- | --- |
| COc1cccc2c1C(=O)c1c(O)c3c(c(O)c1C2=O)C[C@@](O)(C(=O)CO)C[C@@H]3O[C@H]1C[C@H](N)[C@H](O)[C@H](C)O1 [DOX, doxorubicin] | significant loss of body weight |  |
| CC(=O)N[C@H](C(=O)N[C@@H](CO)C(=O)N[C@@H](Cc1ccccc1)C(=O)N[C@@H](C)C(=O)N[C@@H](CCC(=O)O)C(=O)N[C@@H](Cc1ccc(O)cc1)C(=O)N[C@@H](Cc1c[nH]c2ccccc12)C(=O)N[C@@H](C)C(=O)N[C@@H](CC(C)C)C(=O)N[C@@H](CC(C)C)C(=O)N[C@@H](CO)C(=O)N1CCC[C@H]1C(=O)N[C@@H](CS)C(=O)O)[C@@H](C)O [PMI-SH] |  | 9 ± 0.6 |
